According to patent US20090048301A1 (IMCLONE SYSTEMS INCORPORATED, priority 2003, published 2009):

Tests used:
[1] = tested on: bovine tubulin; assay: In vitro tubulin polymerization assay (turbidity at 340 nm); assay type: biochemical; settings: 10 μM compound, 30 minute data point, vs 1% DMSO control
Procedure, shortened: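 Bovine tubulin (97%, <3% MAPs) at 3 mg/ml final in G-PEM pH 7 with 1 mM GTP and 5% glycerol, added cold to compound wells at 37° C (1% DMSO final). A340 read each minute for 30 min; percent inhibition from 30-min point versus DMSO control.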

[2] = tested on: A431 human cancer cell line; assay: Sulphorhodamine B (SRB) growth inhibition assay; assay type: cell-based; settings: A-431, A431 cells, 48 hours, read-out: SRB Assay: μM required to inhibit tumor cell growth by 50% (GI50)
Description: The in vitro growth inhibition activity of the compounds was determined by the Sulphorhodamine B assay. (Skehan P, Storeng R, Scudiero D, Monks A, McMahon J, Vistica D, Warren J T, Bokesch H, Kenney S, Boyd M R. New colorimetric cytotoxicity assay for anticancer-drug screening. J Natl Cancer Inst 82, 1107-1112, 1990). Sulphorhodamine B binds to basic amino acids and stains proteins which can be eluted and detected spectrophotometically by measuring absorbance at 515 nm. The absorbance was indicative of the total protein content of the cells fixed to the walls of the plate well at a given time by trichloroacetic acid, which is a measure of the viable cell concentration.
The in vitro growth inhibition activity of the compounds was determined using a Sulphorhodamine B assay. See, Skehan et al., “New colorimetric cytotoxicity assay for anticancer-drug screening,” J. Natl. Cancer Inst., 82, 1107-1112, (1990). Sulphorhodamine B binds to basic amino acids and stains proteins which can be eluted and detected spectrophotometically by measuring absorbance at 515 nm. The absorbance indicates the total protein content of the cells fixed to the walls of the plate well at a given time by trichloroacetic acid, which is a measure of the viable cell concentration.
The reagents used in the assay can be purchased from commercial sources and include Sulphorhodamine B 0.4% (w/v) in 1% (v/v) acetic acid (Sigma Cat#S-1402); trichloroacetic acid 50% (w/v) in deionized water, working solution (Sigma Cat#T-9159); and trizma base (Tris) 10 mM working solution, pH 7.5 (Sigma Cat#T-7693).
The procedure was cared out over four days. In Day 1, the cells were seeded in a seed 10,000 cells/100 μL/well in 96 well plate in duplicates as per template. Also, seed cells in extra plate for time zero (To plate). Thereafter, the cells were incubated for 24 hours at 37° C. with 5% CO2.
On Day 2, the test compound was added to the cells at five log doses from 100 μM to 0.01 μM (Volume of addition=100 μL in 1% DMSO for all compound concentrations, Control treatment=1% DMSO).
The compounds were prepared by weighing the test compounds in 1.5 ml eppendorf tubes and calculating the volume of DMSO to be added to bring the concentration of the compound to 20 mM. Thereafter, a 20 mM stock was made and diluted by four 10 fold dilutions in DMSO to get 2, 0.2, 0.02 and 0.002 mM solutions. Each solution was diluted 100 times (10 μL to 1 ml medium) and a further addition to the culture plate (100 μL) to half the concentration of cells was made. The final well concentration for 20 mM stock was 100 μM and similarly with other test concentrations.
The cells were incubated for 48 hours at 37° C. with 5% CO2 and terminated by adding 50 μL of 50% cold trichloroacetic acid (10% to final). Thereafter, the cells were incubated for one hour at 4° C.
On Day 4, the cells were fixed to the wells by the addition of 50 μL of 50% cold trichloroacetic acid (10% to final) and incubated for 1 hour at 4° C. The supernatant was discarded by force inverting the plate into the sink followed by washing thrice with tap water and the plates are then air-dried. 100 μL SRB (0.4% in 1% acetic acid) was added to each well and the plates were incubated for 10 minutes at room temperature. Unbound dye was removed by force inverting the plate into the sink and washing thrice with 1% acetic acid. Thereafter, the plates were allowed to air dry.
Bound SRB was solubilized with 100 μL of 10 mM Tris, pH 7.4 and the absorbance was measured at a wavelength of 515 nm.
A sample set of calculations was performed as follows. The percentage growth was calculated by T-To/C-To X 100 if T>To and T-To/To X 100 if T<To, wherein T is Test OD (with compound), C is Control OD, To is Time Zero OD (cell growth at the time of drug addition). […]

Structure (SMILES) | Tubulin Assay: percent inhibition at 10 μM based on 30 minute data [1] [%] | GI50 [2] [µM]
COc1ccc(Nc2nnc(-c3cccnc3Nc3ccc4c(c3)OCO4)[nH]2)cc1 [Compound 8, Benzo[1,3]dioxol-5-yl-{3-[5-(4-methoxy-phenylamino)-4H-[1,2,4]triazol-3-yl]-pyridin-2-yl}-amine] | 100 | 0.3
COc1ccc(OC)c(Nc2nnc(-c3cccnc3Nc3ccc4c(c3)OCO4)[nH]2)c1 [Compound 9, Benzo[1,3]dioxol-5-yl-{3-[5-(2,5-dimethoxy-phenylamino)-4H-[1,2,4]triazol-3-yl]-pyridin-2-yl}-amine] | 47 | 25
COc1ccc(Nc2nnc(-c3cccnc3Nc3ccc4c(c3)OCO4)[nH]2)c(OC)c1 [Compound 10, Benzo[1,3]dioxol-5-yl-{3-[5-(2,4-dimethoxy-phenylamino)-4H-[1,2,4]triazol-3-yl]-pyridin-2-yl}-amine] | 73 | 20
COc1cc(Nc2ncccc2-c2nnc(Nc3ccc(OC)cc3OC)[nH]2)cc(OC)c1 [Compound 12, (3,5-Dimethoxy-phenyl)-{3-[5-(2,4-dimethoxy-phenylamino)-4H-[1,2,4]triazol-3-yl]-pyridin-2-yl}-amine] | 46 | 20
COc1cc(Nc2nnc(-c3cccnc3NCc3ccc4c(c3)OCO4)[nH]2)cc(OC)c1 [Compound 16, Benzo[1,3]dioxol-5-ylmethyl-{3-[5-(3,5-dimethoxy-phenylamino)-4H-[1,2,4]triazol-3-yl]-pyridin-2-yl}-amine] | 41 | 2.5
c1cnc(NCc2ccc3c(c2)OCO3)c(-c2nnc(Nc3ccc4c(c3)OCO4)[nH]2)c1 [Compound 33, {3-[5-(Benzo[1,3]dioxol-5-ylamino)-4H-[1,2,4]triazol-3-yl]-pyridin-2-yl}-benzo[1,3]dioxol-5-ylmethyl-amine] | 60 | 10
COc1cc(Nc2ncccc2-c2nnc(Nc3cc(Cl)cc(Cl)c3)[nH]2)cc(OC)c1 [Compound 53, {3-[5-(3,5-Dichloro-phenylamino)-4H-[1,2,4]triazol-3-yl]-pyridin-2-yl}-(3,5-dimethoxy-phenyl)-amine] | 44 | 6
CS(=O)(=O)c1ccc(-c2nnc(-c3cccnc3NCCCN3CCCC3=O)[nH]2)cc1 [Compound 75, 1-(3-{3-[5-(4-Methanesulfonyl-phenyl)-4H-[1,2,4]triazol-3-yl]-pyridin-2-ylamino}-propyl)-pyrrolidin-2-one] | 60 | 80
COc1cc(CNc2ncccc2-c2nnc(-c3cccc(OC)c3)[nH]2)cc(OC)c1 [Compound 79, (3,5-Dimethoxy-benzyl)-{3-[5-(3-methoxy-phenyl)-4H-[1,2,4]triazol-3-yl]-pyridin-2-yl}-amine] | 32 | 20
COc1cccc(-c2nnc(-c3cccnc3NCc3ccc4c(c3)OCO4)[nH]2)c1 [Compound 80, Benzo[1,3]dioxol-5-ylmethyl-{3-[5-(3-methoxy-phenyl)-4H-[1,2,4]triazol-3-yl]-pyridin-2-yl}-amine] | 46 | 8
Fc1cccc(-c2nnc(-c3cccnc3NCc3ccc4c(c3)OCO4)[nH]2)c1 [Compound 82, Benzo[1,3]dioxol-5-ylmethyl-{3-[5-(3-fluoro-phenyl)-4H-[1,2,4]triazol-3-yl]-pyridin-2-yl}-amine] | 30 | 20
FC(F)(F)c1ccc(-c2nnc(-c3cccnc3NCc3ccc4c(c3)OCO4)[nH]2)cc1 [Compound 84, Benzo[1,3]dioxol-5-ylmethyl-{3-[5-(4-trifluoromethyl-phenyl)-4H-[1,2,4]triazol-3-yl]-pyridin-2-yl}-amine] | 27 | 2.5
FC(F)(F)c1ccc(-c2nnc(-c3cccnc3NCc3cccnc3)[nH]2)cc1 [Compound 86, Pyridin-3-ylmethyl-{3-[5-(4-trifluoromethyl-phenyl)-4H-[1,2,4]triazol-3-yl]-pyridin-2-yl}-amine] | 31 | 2.2
COc1cc(OC)cc(-c2nnc(-c3cccnc3NCc3cccnc3)[nH]2)c1 [Compound 87, {3-[5-(3,5-Dimethoxy-phenyl)-4H-[1,2,4]triazol-3-yl]-pyridin-2-yl}-pyridin-3-ylmethyl-amine] | 85 | 30
CS(=O)(=O)c1ccc(-c2nnc(-c3cccnc3NCc3cccnc3)[nH]2)cc1 [Compound 89, {3-[5-(4-Methanesulfonyl-phenyl)-4H-[1,2,4]triazol-3-yl]-pyridin-2-yl}-pyridin-3-ylmethyl-amine] | 85 | 5
Fc1ccc(OCc2nnc(-c3cccnc3NCc3ccc4c(c3)OCO4)[nH]2)cc1 [Compound 109, Benzo[1,3]dioxol-5-ylmethyl-{3-[5-(4-fluoro-phenoxymethyl)-4H-[1,2,4]triazol-3-yl]-pyridin-2-yl}-amine] | 41 | 30
c1ccc(-c2nnc(Nc3ccc4c(c3)OCO4)[nH]2)c(NCc2ccncc2)c1 [Compound 111, Benzo[1,3]dioxol-5-yl-(5-{2-[(pyridin-4-ylmethyl)-amino]-phenyl}-4H-[1,2,4]triazol-3-yl)-amine] | 70 | 10
FC(F)(F)c1cccc(-c2nnc(-c3ccccc3NCc3cccnc3)[nH]2)c1 [Compound 130, Pyridin-3-ylmethyl-{2-[5-(3-trifluoromethyl-phenyl)-4H-[1,2,4]triazol-3-yl]-phenyl}-amine] | 47 | 2.75
COc1cc(OC)cc(-c2nnc(-c3ccccc3NCc3ccncc3)[nH]2)c1 [Compound 132, {2-[5-(3,5-Dimethoxy-phenyl)-4H-[1,2,4]triazol-3-yl]-phenyl}-pyridin-4-ylmethyl-amine] | 46 | 100
COc1cc(Nc2ncccc2-c2nnc(Nc3ccc(OC)c(OC)c3)o2)cc(OC)c1 [Compound 178, (3,5-Dimethoxy-phenyl)-{3-[5-(3,4-dimethoxy-phenylamino)-[1,3,4]oxadiazol-2-yl]-pyridin-2-yl}-amine] | 40 | 0.3
FC(F)(F)Oc1ccc(Nc2nnc(-c3cccnc3NCc3ccc4c(c3)OCO4)o2)cc1 [Compound 179, Benzo[1,3]dioxol-5-ylmethyl-{3-[5-(4-trifluoromethoxy-phenylamino)-[1,3,4]oxadiazol-2-yl]-pyridin-2-yl}-amine] | 28 | 30
COc1ccc(Nc2nnc(-c3cccnc3NCc3ccc4c(c3)OCO4)o2)cc1OC [Compound 180, Benzo[1,3]dioxol-5-ylmethyl-{3-[5-(3,4-dimethoxy-phenylamino)-[1,3,4]oxadiazol-2-yl]-pyridin-2-yl}-amine] | 32 | 1.5
